Among the data in ChEMBL document CHEMBL1641470, “New azoles with antifungal activity: Design, synthesis, and molecular docking” (2011) are MIC80 values, retold here.

SMILES strings stand for the structures. Values after ≈ are worked out from the molar mass of the structure shown.

Format in all cases: functional
The subject of one experiment is Candida albicans. Nature of the experiment: Antifungal activity against Candida albicans ATCC Y0109 after 24 hrs by broth microdilution method.
A further experiment relates to Cryptococcus neoformans. As to the kind of experiment: Antifungal activity against Cryptococcus neoformans ATCC BLS108 after 72 hrs by broth microdilution method. (In general: Broth dilution looks for growth in wells or tubes with falling amounts of substance.)
Another experiment has as its system Candida parapsilosis. Nature of the experiment: Antifungal activity against Candida parapsilosis by broth microdilution method. Particulars: Lodderomyces parapsilosis.
Another experiment has as its system Candida tropicalis. Nature of the experiment: Antifungal activity against Candida tropicalis by broth microdilution method.
Another experiment deals with Trichophyton rubrum. Nature of the experiment: Antifungal activity against Trichophyton rubrum by broth microdilution method.
The next experiment concerns Fusarium. Nature of the experiment: Antifungal activity against Fusarium by broth microdilution method.
A further experiment concerns Nannizzia gypsea. As to the kind of experiment: Antifungal activity against Microsporum gypseum by broth microdilution method.
For another experiment, the system named is Aspergillus fumigatus. As to the kind of experiment: Antifungal activity against Aspergillus fumigatus by broth microdilution method.

The term MIC80 denotes the lowest concentration that inhibits either 80% of growth or 80% of the strains tested, depending on the study. In the case of `COc1ccc(OC)c(/C=C/C(=O)Nc2ccc(N3CCN(CC(O)(Cn4cncn4)c4ccc(F)cc4F)CC3)cc2)c1` (stereo unspecified), the MIC80 against Candida albicans was 0.0156 µg/mL (≈ 0.0258 µM); with Cryptococcus neoformans, 0.25 µg/mL (≈ 0.413 µM); against Candida parapsilosis, 0.25 µg/mL (≈ 0.413 µM); in the experiment on Candida tropicalis it was 0.0625 µg/mL (≈ 0.103 µM); against Trichophyton rubrum, 0.25 µg/mL (≈ 0.413 µM); in the experiment with Fusarium, 4 µg/mL (≈ 6.62 µM). Also, the MIC80 against Nannizzia gypsea is 1 µg/mL (≈ 1.65 µM); against Aspergillus fumigatus, more than 64 µg/mL.

Take `O=C(/C=C/c1ccccc1[N+](=O)[O-])Nc1ccc(N2CCN(CC(O)(Cn3cncn3)c3ccc(F)cc3F)CC2)cc1` (stereo unspecified): the MIC80 in the experiment on Candida albicans turned out to be 0.0156 µg/mL (≈ 0.0265 µM); in the experiment on Cryptococcus neoformans, 1 µg/mL (≈ 1.7 µM); in the experiment with Candida parapsilosis it was 0.25 µg/mL (≈ 0.424 µM); in the experiment with Candida tropicalis, 0.0625 µg/mL (≈ 0.106 µM); against Trichophyton rubrum, 0.0625 µg/mL (≈ 0.106 µM); in the experiment on Fusarium it was 4 µg/mL (≈ 6.78 µM). The results for the MIC80 against Nannizzia gypsea and in the experiment on Aspergillus fumigatus were 0.25 µg/mL (≈ 0.424 µM) and more than 64 µg/mL, respectively.

Turning to `O=C(/C=C/c1cccc([N+](=O)[O-])c1)Nc1ccc(N2CCN(CC(O)(Cn3cncn3)c3ccc(F)cc3F)CC2)cc1` (stereo unspecified), the MIC80 was 0.0156 µg/mL (≈ 0.0265 µM) in the experiment with Candida albicans; 0.25 µg/mL (≈ 0.424 µM) against Cryptococcus neoformans; 0.0625 µg/mL (≈ 0.106 µM) against Candida parapsilosis; 0.25 µg/mL (≈ 0.424 µM) against Candida tropicalis; 0.0625 µg/mL (≈ 0.106 µM) against Trichophyton rubrum; 1 µg/mL (≈ 1.7 µM) against Fusarium. For the same compound, the MIC80 against Nannizzia gypsea was 0.25 µg/mL (≈ 0.424 µM); in the experiment with Aspergillus fumigatus, 4 µg/mL (≈ 6.78 µM).

Regarding `O=C(/C=C/c1ccc([N+](=O)[O-])cc1)Nc1ccc(N2CCN(CC(O)(Cn3cncn3)c3ccc(F)cc3F)CC2)cc1` (stereo unspecified), the MIC80 against Candida albicans stood at 0.0625 µg/mL (≈ 0.106 µM); against Cryptococcus neoformans it was 1 µg/mL (≈ 1.7 µM); against Candida parapsilosis, 1 µg/mL (≈ 1.7 µM); in the experiment with Candida tropicalis, 0.25 µg/mL (≈ 0.424 µM); against Trichophyton rubrum it was 0.0156 µg/mL (≈ 0.0265 µM); in the experiment with Fusarium, 16 µg/mL (≈ 27.1 µM). Further, the figures for the MIC80 against Nannizzia gypsea and against Aspergillus fumigatus were 0.0625 µg/mL (≈ 0.106 µM) and 4 µg/mL (≈ 6.78 µM), respectively.

`N#Cc1cccc(/C=C/C(=O)Nc2ccc(N3CCN(CC(O)(Cn4cncn4)c4ccc(F)cc4F)CC3)cc2)c1` (stereo unspecified): the MIC80 in the experiment with Candida albicans stood at 0.0156 µg/mL (≈ 0.0274 µM); in the experiment with Cryptococcus neoformans it was 1 µg/mL (≈ 1.76 µM); against Candida parapsilosis it was 0.25 µg/mL (≈ 0.439 µM); in the experiment on Candida tropicalis it was 0.25 µg/mL (≈ 0.439 µM); against Trichophyton rubrum, 1 µg/mL (≈ 1.76 µM); with Fusarium it was 16 µg/mL (≈ 28.1 µM). The MIC80 is 0.0625 µg/mL (≈ 0.11 µM) against Nannizzia gypsea and more than 64 µg/mL with Aspergillus fumigatus.

As to `O=C(/C=C/c1ccccc1)Nc1ccc(N2CCN(CC(O)(Cn3cncn3)c3ccc(F)cc3F)CC2)c(F)c1` (stereo unspecified), the MIC80 against Candida albicans came to 0.25 µg/mL (≈ 0.444 µM); with Cryptococcus neoformans it was 0.0156 µg/mL (≈ 0.0277 µM); in the experiment with Candida parapsilosis, 0.0625 µg/mL (≈ 0.111 µM); against Candida tropicalis, 0.0625 µg/mL (≈ 0.111 µM); against Trichophyton rubrum, 0.0625 µg/mL (≈ 0.111 µM); against Fusarium, 0.25 µg/mL (≈ 0.444 µM). The MIC80 came to 0.25 µg/mL (≈ 0.444 µM) against Nannizzia gypsea and 1 µg/mL (≈ 1.78 µM) against Aspergillus fumigatus.

Take `O=C(/C=C/c1ccccc1F)Nc1ccc(N2CCN(CC(O)(Cn3cncn3)c3ccc(F)cc3F)CC2)c(F)c1` (stereo unspecified): the MIC80 against Candida albicans was found to be 0.25 µg/mL (≈ 0.431 µM); with Cryptococcus neoformans, 0.25 µg/mL (≈ 0.431 µM); in the experiment on Candida parapsilosis, 0.0625 µg/mL (≈ 0.108 µM); in the experiment on Candida tropicalis, 0.0625 µg/mL (≈ 0.108 µM); in the experiment on Trichophyton rubrum, 0.0625 µg/mL (≈ 0.108 µM); with Fusarium it was 1 µg/mL (≈ 1.72 µM). Moreover, the MIC80 came out at 0.25 µg/mL (≈ 0.431 µM) with Nannizzia gypsea and 4 µg/mL (≈ 6.89 µM) in the experiment with Aspergillus fumigatus.

In the case of `O=C(/C=C/c1cccc(F)c1)Nc1ccc(N2CCN(CC(O)(Cn3cncn3)c3ccc(F)cc3F)CC2)c(F)c1` (stereo unspecified), the MIC80 is 0.25 µg/mL (≈ 0.431 µM) against Candida albicans; 0.25 µg/mL (≈ 0.431 µM) with Cryptococcus neoformans; 0.0156 µg/mL (≈ 0.0269 µM) with Candida parapsilosis; 0.25 µg/mL (≈ 0.431 µM) in the experiment on Candida tropicalis; 0.25 µg/mL (≈ 0.431 µM) in the experiment with Trichophyton rubrum; 0.25 µg/mL (≈ 0.431 µM) in the experiment on Fusarium. Moreover, the values for the MIC80 in the experiment with Nannizzia gypsea and against Aspergillus fumigatus were 0.25 µg/mL (≈ 0.431 µM) and 4 µg/mL (≈ 6.89 µM), respectively.

As for `O=C(/C=C/c1ccc(F)cc1)Nc1ccc(N2CCN(CC(O)(Cn3cncn3)c3ccc(F)cc3F)CC2)c(F)c1` (stereo unspecified), the MIC80 with Candida albicans stood at 0.25 µg/mL (≈ 0.431 µM); against Cryptococcus neoformans it was 0.25 µg/mL (≈ 0.431 µM); in the experiment on Candida parapsilosis, 0.0156 µg/mL (≈ 0.0269 µM); with Candida tropicalis, 0.0156 µg/mL (≈ 0.0269 µM); with Trichophyton rubrum it was 0.0625 µg/mL (≈ 0.108 µM); against Fusarium, 0.25 µg/mL (≈ 0.431 µM). For the same compound, the MIC80 in the experiment on Nannizzia gypsea was 0.25 µg/mL (≈ 0.431 µM); against Aspergillus fumigatus, 1 µg/mL (≈ 1.72 µM).

In the case of `O=C(/C=C/c1ccccc1Cl)Nc1ccc(N2CCN(CC(O)(Cn3cncn3)c3ccc(F)cc3F)CC2)c(F)c1` (stereo unspecified), the MIC80 was 1 µg/mL (≈ 1.67 µM) with Candida albicans; 1 µg/mL (≈ 1.67 µM) in the experiment with Cryptococcus neoformans; 0.25 µg/mL (≈ 0.419 µM) against Candida parapsilosis; 0.25 µg/mL (≈ 0.419 µM) in the experiment with Candida tropicalis; 0.25 µg/mL (≈ 0.419 µM) in the experiment on Trichophyton rubrum; 1 µg/mL (≈ 1.67 µM) with Fusarium. For the same compound, the MIC80 against Nannizzia gypsea amounted to 0.25 µg/mL (≈ 0.419 µM); against Aspergillus fumigatus, 4 µg/mL (≈ 6.7 µM).

Turning to `O=C(/C=C/c1cccc(Cl)c1)Nc1ccc(N2CCN(CC(O)(Cn3cncn3)c3ccc(F)cc3F)CC2)c(F)c1` (stereo unspecified), the MIC80 against Candida albicans amounted to 1 µg/mL (≈ 1.67 µM); against Cryptococcus neoformans, 0.25 µg/mL (≈ 0.419 µM); against Candida parapsilosis, 0.25 µg/mL (≈ 0.419 µM); against Candida tropicalis, 0.0625 µg/mL (≈ 0.105 µM); in the experiment on Trichophyton rubrum, 0.25 µg/mL (≈ 0.419 µM); against Fusarium it was 1 µg/mL (≈ 1.67 µM). The figures for the MIC80 in the experiment on Nannizzia gypsea and in the experiment on Aspergillus fumigatus were 0.0625 µg/mL (≈ 0.105 µM) and 1 µg/mL (≈ 1.67 µM), respectively.

In the case of `O=C(/C=C/c1ccc(Cl)cc1)Nc1ccc(N2CCN(CC(O)(Cn3cncn3)c3ccc(F)cc3F)CC2)c(F)c1` (stereo unspecified), the MIC80 against Candida albicans turned out to be 0.25 µg/mL (≈ 0.419 µM); in the experiment with Cryptococcus neoformans, 0.25 µg/mL (≈ 0.419 µM); against Candida parapsilosis it was 0.0156 µg/mL (≈ 0.0261 µM); against Candida tropicalis, 0.0625 µg/mL (≈ 0.105 µM); in the experiment on Trichophyton rubrum it was 0.25 µg/mL (≈ 0.419 µM); with Fusarium it was 0.25 µg/mL (≈ 0.419 µM). The MIC80 is 0.0625 µg/mL (≈ 0.105 µM) against Nannizzia gypsea and 1 µg/mL (≈ 1.67 µM) in the experiment on Aspergillus fumigatus.
